{
  "source": "patent US4309362A",
  "about": "“Process for the optical resolution of DL-p-hydroxy-phenylglycine” (Tanabe Seiyaku Co., Ltd., priority 1976, dated 1982)",
  "key": {"physchem [1]": {"assay": "physchem", "conditions": "0.5 m benzenesulfonic acid, organic solvent or mixture, aqueous 0.5 M benzenesulfonic acid solution"}, "[2]": {"assay": "Solubility of p-hydroxyphenylglycine o-toluenesulfonate in water (Table 3)", "type": "physicochemical"}, "[3]": {"assay": "Solubility of p-hydroxyphenylglycine p-ethylbenzenesulfonate in aqueous 3 M p-ethylbenzenesulfonic acid (Table 2)", "type": "physicochemical", "conditions": "aqueous 3 M p-ethylbenzenesulfonic acid solution", "from_the_text": "*an aqueous 3 M pethylbenzenesulfonate acid solution"}, "physchem [4]": {"assay": "physchem", "type": "physicochemical", "conditions": "water", "experimental": "DL-, D- or L-p-hydroxyphenylglycine sulfosalicylate is prepared in the same manner as described in Example 1.\np-hydroxyphenyl- Specific Solubility (g/100\nMelting rotation ml of water)"}},
  "data": [
    {"smiles": "NC(C(=O)O)c1ccc(O)cc1.O=S(=O)(O)c1ccccc1", "note": "(racemic) [DL-p-hydroxyphenylglycine benzenesulfonate]", "values": [
      {"measurement": "solubility", "setting": "physchem [1]; 20° C.", "value": 154, "unit": "mg/mL"},
      {"measurement": "solubility", "setting": "physchem [1]; 30° C.", "value": 241, "unit": "mg/mL"},
      {"measurement": "solubility", "setting": "physchem [1]; 40° C.", "value": 350, "unit": "mg/mL"}
    ]},
    {"smiles": "NC(C(=O)O)c1ccc(O)cc1", "note": "(racemic) [DL-p-hydroxyphenylglycine o-toluenesulfonate]", "values": [
      {"measurement": "solubility", "setting": "[2]; 20° C.", "value": 123, "unit": "mg/mL"},
      {"measurement": "solubility", "setting": "[2]; 30° C.", "value": 160, "unit": "mg/mL"},
      {"measurement": "solubility", "setting": "[2]; 40° C.", "value": 210, "unit": "mg/mL"}
    ]},
    {"smiles": "NC(C(=O)O)c1ccc(O)cc1", "note": "(racemic) [DL-p-hydroxyphenylglycine p-ethylbenzenesulfonate]", "values": [
      {"measurement": "solubility", "setting": "[3]; 20° C.", "value": "19.3 g/100 ml of solvent"},
      {"measurement": "solubility", "setting": "[3]; 30° C.", "value": "33.2 g/100 ml of solvent"},
      {"measurement": "solubility", "setting": "[3]; 40° C.", "value": "52.1 g/100 ml of solvent"}
    ]},
    {"smiles": "NC(C(=O)O)c1ccc(O)cc1", "note": "(racemic) [DL-p-hydroxyphenylglycine sulfosalicylate]", "values": [
      {"measurement": "solubility", "setting": "physchem [4]", "value": "26.3 g/100 ml of water"},
      {"measurement": "solubility", "setting": "physchem [4]; Solubility", "value": 182, "unit": "mg/mL"}
    ]},
    {"smiles": "N[C@@H](C(=O)O)c1ccc(O)cc1", "note": "(single isomer, unassigned; enantiomer d) [p-hydroxyphenylglycine p-ethylbenzenesulfonate, D-enantiomer, D-p-hydroxyphenylglycine p-ethylbenzenesulfonate]", "values": [
      {"measurement": "solubility", "setting": "[3]; 20° C.", "value": "10.3 g/100 ml of solvent"},
      {"measurement": "solubility", "setting": "[3]; 30° C.", "value": "14.2 g/100 ml of solvent"},
      {"measurement": "solubility", "setting": "[3]; 40° C.", "value": "21.8 g/100 ml of solvent"}
    ]},
    {"smiles": "N[C@@H](C(=O)O)c1ccc(O)cc1", "note": "(single isomer, unassigned; enantiomer d) [p-hydroxyphenylglycine sulfosalicylate monohydrate, D-enantiomer, D-p-hydroxyphenylglycine sulfosalicylate]", "values": [
      {"measurement": "solubility", "setting": "physchem [4]", "value": "14.0 g/100 ml of water"},
      {"measurement": "solubility", "setting": "physchem [4]; Solubility", "value": 100, "unit": "mg/mL"}
    ]},
    {"smiles": "N[C@@H](C(=O)O)c1ccc(O)cc1.O=S(=O)(O)c1ccccc1", "note": "[p-hydroxyphenylglycine benzenesulfonate, D-enantiomer, D-p-hydroxyphenylglycine benzenesulfonate]", "values": [
      {"measurement": "solubility", "setting": "physchem [1]; 20° C.", "value": 77, "unit": "mg/mL"},
      {"measurement": "solubility", "setting": "physchem [1]; 30° C.", "value": 110, "unit": "mg/mL"},
      {"measurement": "solubility", "setting": "physchem [1]; 40° C.", "value": 167, "unit": "mg/mL"}
    ]},
    {"smiles": "N[C@H](C(=O)O)c1ccc(O)cc1.O=S(=O)(O)c1ccccc1", "note": "[p-hydroxyphenylglycine benzenesulfonate, L-enantiomer, L-p-hydroxyphenylglycine benzenesulfonate]", "values": [
      {"measurement": "solubility", "setting": "physchem [1]; 20° C.", "value": 77, "unit": "mg/mL"},
      {"measurement": "solubility", "setting": "physchem [1]; 30° C.", "value": 110, "unit": "mg/mL"},
      {"measurement": "solubility", "setting": "physchem [1]; 40° C.", "value": 167, "unit": "mg/mL"}
    ]},
    {"smiles": "N[C@@H](C(=O)O)c1ccc(O)cc1", "note": "[p-hydroxyphenylglycine o-toluenesulfonate, D-enantiomer, D-p-hydroxyphenylglycine o-toluenesulfonate]", "values": [
      {"measurement": "solubility", "setting": "[2]; 20° C.", "value": 77, "unit": "mg/mL"},
      {"measurement": "solubility", "setting": "[2]; 30° C.", "value": 96, "unit": "mg/mL"},
      {"measurement": "solubility", "setting": "[2]; 40° C.", "value": 122, "unit": "mg/mL"}
    ]},
    {"smiles": "N[C@H](C(=O)O)c1ccc(O)cc1", "note": "[p-hydroxyphenylglycine o-toluenesulfonate, L-enantiomer, L-p-hydroxyphenylglycine o-toluenesulfonate]", "values": [
      {"measurement": "solubility", "setting": "[2]; 20° C.", "value": 77, "unit": "mg/mL"},
      {"measurement": "solubility", "setting": "[2]; 30° C.", "value": 96, "unit": "mg/mL"},
      {"measurement": "solubility", "setting": "[2]; 40° C.", "value": 122, "unit": "mg/mL"}
    ]},
    {"smiles": "N[C@H](C(=O)O)c1ccc(O)cc1", "note": "[p-hydroxyphenylglycine p-ethylbenzenesulfonate, L-enantiomer, L-p-hydroxyphenylglycine p-ethylbenzenesulfonate]", "values": [
      {"measurement": "solubility", "setting": "[3]; 20° C.", "value": "10.3 g/100 ml of solvent"},
      {"measurement": "solubility", "setting": "[3]; 30° C.", "value": "14.2 g/100 ml of solvent"},
      {"measurement": "solubility", "setting": "[3]; 40° C.", "value": "21.8 g/100 ml of solvent"}
    ]},
    {"smiles": "N[C@H](C(=O)O)c1ccc(O)cc1", "note": "[p-hydroxyphenylglycine sulfosalicylate monohydrate, L-enantiomer, L-p-hydroxyphenylglycine sulfosalicylate]", "values": [
      {"measurement": "solubility", "setting": "physchem [4]", "value": "14.0 g/100 ml of water"},
      {"measurement": "solubility", "setting": "physchem [4]; Solubility", "value": 100, "unit": "mg/mL"}
    ]}
  ]
}
